The record followed here is patent publication US8178570B2, “Tie-2 modulators and methods of use” (Exelixis, Inc., priority 2003, dated 2012).

pIC50: −log10 of the molar value.

Chain of Tie-2 (Q02763 23-1124): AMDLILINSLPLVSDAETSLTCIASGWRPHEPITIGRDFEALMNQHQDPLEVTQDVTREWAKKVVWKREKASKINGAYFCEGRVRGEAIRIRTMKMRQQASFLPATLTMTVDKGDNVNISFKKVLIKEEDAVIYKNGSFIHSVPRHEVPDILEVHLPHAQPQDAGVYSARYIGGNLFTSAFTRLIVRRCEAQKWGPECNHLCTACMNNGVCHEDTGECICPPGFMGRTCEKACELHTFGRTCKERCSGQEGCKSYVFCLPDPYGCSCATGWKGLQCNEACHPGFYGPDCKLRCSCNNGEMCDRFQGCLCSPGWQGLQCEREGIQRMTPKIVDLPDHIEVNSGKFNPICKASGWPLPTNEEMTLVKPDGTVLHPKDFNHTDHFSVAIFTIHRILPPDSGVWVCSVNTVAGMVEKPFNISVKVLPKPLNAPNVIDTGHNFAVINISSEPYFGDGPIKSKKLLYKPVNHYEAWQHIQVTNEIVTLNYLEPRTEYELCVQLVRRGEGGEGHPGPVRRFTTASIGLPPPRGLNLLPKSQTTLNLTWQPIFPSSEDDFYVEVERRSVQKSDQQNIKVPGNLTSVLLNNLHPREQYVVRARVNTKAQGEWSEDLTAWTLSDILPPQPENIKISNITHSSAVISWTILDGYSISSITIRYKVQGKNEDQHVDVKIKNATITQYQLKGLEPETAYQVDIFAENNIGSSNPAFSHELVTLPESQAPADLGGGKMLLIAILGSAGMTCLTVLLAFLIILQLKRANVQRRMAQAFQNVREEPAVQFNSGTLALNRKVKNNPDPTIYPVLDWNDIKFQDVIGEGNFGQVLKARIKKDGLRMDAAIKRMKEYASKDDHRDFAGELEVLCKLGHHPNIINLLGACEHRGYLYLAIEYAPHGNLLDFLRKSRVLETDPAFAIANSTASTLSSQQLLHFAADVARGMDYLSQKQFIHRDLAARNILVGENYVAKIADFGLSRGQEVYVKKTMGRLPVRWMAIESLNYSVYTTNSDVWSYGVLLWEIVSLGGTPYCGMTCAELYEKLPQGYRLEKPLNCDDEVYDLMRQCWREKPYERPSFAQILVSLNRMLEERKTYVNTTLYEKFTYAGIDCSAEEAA

This test addresses Tie-2 (Homo sapiens, UniProt Q02763). The test is described as follows: Tie-2 tyrosine kinase activity: kinase-dependent ATP consumption (pEY substrate, luciferase/luciferin chemiluminescence) or 33P-ATP incorporation into substrate. Conditions: Tie-2 (human enzyme) inhibition, Table 2, class symbols A-D. The format is biochemical. On the procedure: One measure of inhibition is Ki. […] The Ki for a compound is determined from the IC50 based on three assumptions. First, only one compound molecule binds to the enzyme and there is no cooperativity. […] Third, the enzymatic rate of the enzyme-inhibitor complex is zero. The rate (i.e., compound concentration) data are fitted to the equation:
[formula] where V is the observed rate, Vmax, is the rate of the free enzyme, I0 is the inhibitor concentration, E0 is the enzyme concentration, and Kd is the dissociation constant of the enzyme-inhibitor complex.
Tyrosine kinase activity is determined by 1) measurement of kinase-dependent ATP consumption by in the presence of a generic substrate such as polyglutamine, tyrosine (pEY), by luciferase/luciferin-mediated chemiluminescence or; 2) incorporation of radioactive phosphate derived from ^33P-ATP into a generic substrate which has been absorbed onto the well surface of polystyrene microtiter plates. Phosphorylated substrate products are quantified by scintillation spectrometry.
Inhibition is indicated as IC50 with following key: A=IC50 less than 50 nM, B=IC50 greater than 50 nM, but less than or equal to 1000 nM, C=IC50 greater than 1000 nM, but less than 10,000 nM, and D=IC50 10,000 nM or greater. The abbreviation for human enzyme, Tie-2, is defined as tyrosine kinase with immunoglobulin and EGF repeats.
Molecule `COc1ccc(-c2nc(-c3ccncc3)n(CCCCN(C(=O)Cc3cccc4ccccc34)C3CCCC3)n2)cc1Cl` [Entry 25, N-(4-{3-[3-chloro-4-(methyloxy)phenyl]-5-pyridin-4-yl-1H-1,2,4-triazol-1-yl}butyl)-N-cyclopentyl-2-naphthalen-1-ylacetamide] gave a pIC50 of no more than 5.00. As for `COc1ccc(-c2nc(-c3ccncc3)nn2CCN(C(=O)c2ccccc2)C2CCCC2)cc1Cl` [Entry 26, N-(2-{5-[3-chloro-4-(methyloxy)phenyl]-3-pyridin-4-yl-1H-1,2,4-triazol-1-yl}ethyl)-N-cyclopentylbenzamide], the pIC50 was no more than 5.00. Consider `COc1ccc(-c2nc(-c3ccncc3)n(CCN(C(=O)c3ccccc3)C3CCCC3)n2)cc1Cl` [Entry 27, N-(2-{3-[3-chloro-4-(methyloxy)phenyl]-5-pyridin-4-yl-1H-1,2,4-triazol-1-yl}ethyl)-N-cyclopentylbenzamide], for which the pIC50 was no more than 5.00. Take `COc1ccc(-c2nc(-c3ccncc3)nn2CCN(C(=O)c2ccnc3ccccc23)C2CCCC2)cc1Cl` [Entry 28, N-(2-{5-[3-chloro-4-(methyloxy)phenyl]-3-pyridin-4-yl-1H-1,2,4-triazol-1-yl}ethyl)-N-cyclopentylquinoline-4-carboxamide]: the negative logarithm of the IC50 (pIC50) is no more than 5.00. Molecule `COc1ccc(-c2nc(-c3ccncc3)nn2CCN(C(=O)Nc2cccc3ccccc23)C2CCCC2)cc1Cl` [Entry 29, N-(2-{5-[3-chloro-4-(methyloxy)phenyl]-3-pyridin-4-yl-1H-1,2,4-triazol-1-yl}ethyl)-N-cyclopentyl-N′-naphthalen-1-ylurea] gave a pIC50 greater than 7.30.

`COc1ccc(-c2nc(-c3ccncc3)nn2CCN(C(=O)Nc2ccccc2)C2CCCC2)cc1Cl` [Entry 30, N-(2-{5-[3-chloro-4-(methyloxy)phenyl]-3-pyridin-4-yl-1H-1,2,4-triazol-1-yl}ethyl)-N-cyclopentyl-N′-phenylurea] showed a pIC50 of no more than 5.00. The same measure for `COc1ccc(-c2nc(-c3ccncc3)nn2CCN(C(=O)Cc2ccccc2)C2CCCC2)cc1Cl` [Entry 31, N-(2-{5-[3-chloro-4-(methyloxy)phenyl]-3-pyridin-4-yl-1H-1,2,4-triazol-1-yl}ethyl)-N-cyclopentyl-2-phenylacetamide]: 5.00 to 6.00; for `COc1ccc(-c2nc(-c3ccccc3)nn2CCN(C(=O)Cc2cccc3ccccc23)C2CCCC2)cc1Cl` [Entry 32, N-(2-{5-[3-chloro-4-(methyloxy)phenyl]-3-phenyl-1H-1,2,4-triazol-1-yl}ethyl)-N-cyclopentyl-2-naphthalen-1-ylacetamide]: no more than 5.00. The same measure for `COc1ccc(-c2nc(-c3ccccc3)nn2CC(=O)NC2CCCC2)cc1Cl` [Entry 33, 2-{5-[3-chloro-4-(methyloxy)phenyl]-3-phenyl-1H-1,2,4-triazol-1-yl}-N-cyclopentylacetamide]: no more than 5.00; for `COc1ccc(-c2nc(-c3ccncc3)nn2CCNC(=O)Cc2cccc3ccccc23)cc1Cl` [Entry 34, N-(2-{5-[3-chloro-4-(methyloxy)phenyl]-3-pyridin-4-yl-1H-1,2,4-triazol-1-yl}ethyl)-2-naphthalen-1-ylacetamide]: 5.00 to 6.00; for `COc1ccc(-c2nc(-c3ccncc3)n(CCN(C(=O)Cc3cccc4ccccc34)C(C)C)n2)cc1Cl` [Entry 35, N-(2-{3-[3-chloro-4-(methyloxy)phenyl]-5-pyridin-4-yl-1H-1,2,4-triazol-1-yl}ethyl)-N-(1-methylethyl)-2-naphthalen-1-ylacetamide]: no more than 5.00. In the case of `COc1ccc(-c2nc(-c3ccncc3)nn2CCN(C(=O)Cc2cccc3ccccc23)C2CCCCC2)cc1Cl` [Entry 36, N-(2-{5-[3-chloro-4-(methyloxy)phenyl]-3-pyridin-4-yl-1H-1,2,4-triazol-1-yl}ethyl)-N-cyclohexyl-2-naphthalen-1-ylacetamide], the pIC50 is greater than 7.30.

`COc1ccc(-c2nc(-c3ccncc3)n(CCN(C(=O)Cc3cccc4ccccc34)C3CCCCC3)n2)cc1Cl` [Entry 37, N-(2-{3-[3-chloro-4-(methyloxy)phenyl]-5-pyridin-4-yl-1H-1,2,4-triazol-1-yl}ethyl)-N-cyclohexyl-2-naphthalen-1-ylacetamide] had a pIC50 of 6.00 to 7.30. For the molecule `COc1ccc(-c2nc(-c3ccncc3)n(CCN(C(=O)Cc3cccc4ccccc34)C3CC3)n2)cc1Cl` [Entry 38, N-(2-{3-[3-chloro-4-(methyloxy)phenyl]-5-pyridin-4-yl-1H-1,2,4-triazol-1-yl}ethyl)-N-cyclopropyl-2-naphthalen-1-ylacetamide], the pIC50 was 6.00 to 7.30.

Regarding `COc1ccc(-c2nc(-c3ccncc3)nn2CCN(C(=O)Cc2cccc3ccccc23)C2CCCC2)cc1` [Entry 39, N-cyclopentyl-N-(2-{5-[4-(methyloxy)phenyl]-3-pyridin-4-yl-1H-1,2,4-triazol-1-yl}ethyl)-2-naphthalen-1-ylacetamide], the pIC50 is greater than 7.30. The same measure for `COc1ccc(-c2nc(-c3ccncc3)n(CCN(C(=O)Cc3cccc4ccccc34)C3CCCC3)n2)cc1` [Entry 40, N-cyclopentyl-N-(2-{3-[4-(methyloxy)phenyl]-5-pyridin-4-yl-1H-1,2,4-triazol-1-yl}ethyl)-2-naphthalen-1-ylacetamide]: 5.00 to 6.00. In turn, `COc1ccc(-c2nc(-c3ccncc3)nn2CCN(C(=O)Cc2cccc3ccccc23)C2CCCC2)cc1OC` [Entry 41, N-(2-{5-[3,4-bis(methyloxy)phenyl]-3-pyridin-4-yl-1H-1,2,4-triazol-1-yl}ethyl)-N-cyclopentyl-2-naphthalen-1-ylacetamide] showed a pIC50 greater than 7.30. The value for `COc1ccc(-c2nc(-c3ccncc3)n(CCN(C(=O)Cc3cccc4ccccc34)C3CCCC3)n2)cc1OC` [Entry 42, N-(2-{3-[3,4-bis(methyloxy)phenyl]-5-pyridin-4-yl-1H-1,2,4-triazol-1-yl}ethyl)-N-cyclopentyl-2-naphthalen-1-ylacetamide] was 6.00 to 7.30; that for `Cc1nc(-c2ccncc2)nn1CCN(C(=O)Cc1cccc2ccccc12)C1CCCC1` [Entry 43, N-cyclopentyl-N-[2-(5-methyl-3-pyridin-4-yl-1H-1,2,4,-triazol-1-yl)ethyl]-2-naphthalen-1-ylacetamide] was greater than 7.30. The value for `O=C(Cc1cccc2ccccc12)N(CCn1cnc(-c2ccncc2)n1)C1CCCC1` [Entry 44, N-cyclopentyl-2-naphthalen-1-yl-N-[2-(3-pyridin-4-yl-1H-1,2,4-triazol-1-yl)ethyl]acetamide] was greater than 7.30. The value for `O=C(Cc1cccc2ccccc12)N(CCn1nc(-c2ccncc2)nc1-c1cccc(C(F)(F)F)c1)C1CCCC1` [Entry 45, N-cyclopentyl-2-naphthalen-1-yl-N-(2-{3-pyridin-4-yl-5-[3-(trifluoromethyl)phenyl]-1H-1,2,4-triazol-1-yl}ethyl)acetamide] was greater than 7.30; that for `O=C(Cc1cccc2ccccc12)N(CCn1nc(-c2cccc(C(F)(F)F)c2)nc1-c1ccncc1)C1CCCC1` [Entry 46, N-cyclopentyl-2-naphthalen-1-yl-N-(2-{5-pyridin-4-yl-3-[3-(trifluoromethyl)phenyl]-1H-1,2,4-triazol-1-yl}ethyl)acetamide] was no more than 5.00; that for `O=C(Cc1cccc2ccccc12)N(CCn1nc(-c2ccncc2)nc1-c1cc(Cl)cc(Cl)c1)C1CCCC1` [Entry 47, N-cyclopentyl-N-{2-[5-(3,5-dichlorophenyl)-3-pyridin-4-yl-1H-1,2,4-triazol-1-yl]ethyl}-2-naphthalen-1-ylacetamide] was greater than 7.30. The molecule `COc1ccc(-c2nc(-c3ccncc3)nn2CCN(C(=O)Cc2ccc3ccccc3c2)C2CCCC2)cc1Cl` [Entry 48, N-(2-{5-[3-chloro-4-(methyloxy)phenyl]-3-pyridin-4-yl-1H-1,2,4-triazol-1-yl}ethyl)-N-cyclopentyl-2-naphthalen-2-ylacetamide] had a pIC50 of no more than 5.00. The same measure for `O=C(Cc1cccc2ccccc12)N(CCc1n[nH]c(-c2ccncc2)n1)C1CCCC1` [Entry 49, N-cyclopentyl-2-naphthalen-1-yl-N-[2-(5-pyridin-4-yl-1H-1,2,4-triazol-3-yl)ethyl]acetamide]: greater than 7.30. The value for `O=C(Cc1cccc2ccccc12)N(CCn1nc(-c2ccncc2)nc1-c1ccccc1)C1CCCC1` [Entry 50, N-cyclopentyl-2-naphthalen-1-yl-N-[2-(5-phenyl-3-pyridin-4-yl-1H-1,2,4-triazol-1-yl)ethyl]acetamide] was greater than 7.30; that for `O=C(Cc1cccc2ccccc12)N(CCn1nc(-c2ccccc2)nc1-c1ccncc1)C1CCCC1` [Entry 51, N-cyclopentyl-2-naphthalen-1-yl-N-[2-(3-phenyl-5-pyridin-4-yl-1H-1,2,4-triazol-1-yl)ethyl]acetamide] was 5.00 to 6.00; that for `O=C(Cc1cccc2ccccc12)N(CCc1nc(-c2ccncc2)no1)C1CCCC1` [Entry 52, N-cyclopentyl-2-naphthalen-1-yl-N-[2-(3-pyridin-4-yl-1,2,4-oxadiazol-5-yl)ethyl]acetamide] was 6.00 to 7.30. Take `COc1ccc(-c2nc(-c3ccnc(Cl)c3)nn2CCN(C(=O)Cc2cccc3ccccc23)C2CCCC2)cc1Cl` [Entry 53, N-{2-[5-[3-chloro-4-(methyloxy)phenyl]-3-(2-chloropyridin-4-yl)-1H-1,2,4-triazol-1-yl]ethyl}-N-cyclopentyl-2-naphthalen-1-ylacetamide]: the pIC50 was no more than 5.00.
